We go through one substance from patent publication US20220154282A1, “DETECTION MEANS, COMPOSITIONS AND METHODS FOR MODULATING SYNOVIAL SARCOMA CELLS” (The Broad Institute, Inc., priority 2019, published 2022).

This data set deals with Aska and SYO1 SyS cell lines. Briefly: SS18-SSX knockdown (shSSX vs shCt) with scRNA-Seq readout. It is filed as cell-based, human. From the text:
To decouple the intrinsic and extrinsic factor determining the malignant cell states in SyS Applicants first tested whether the core oncogenic and other programs were co-regulated by the genetic fusion driving SyS. Applicants turned to explore the potential regulators of these cellular programs, starting from the genetic driver. To this end, they depleted SS18-SSX in two SyS cell lines (SYO1 and Aska) using shRNA and profiled 12,263 cells with scRNA-Seq. The fusion KD led to massive and highly consistent transcriptional alternation in both cell lines (FIG. 7A, Tables 8, 9). […] Leveraging the single-cell readout Applicants confirmed that the KD impact on the core oncogenic and differentiation programs was decoupled from, and not secondary to, the repression of cellular proliferation (FIG. 7B), such that the impact on the core oncogenic and differentiation programs was observed even when controlling for the cycling status of the cells, and when considering only cycling or non-cycling cells (P<1.54*10^−13, t-test, FIG. 5B, METHODS). Thus, the fusion's impact on cell cycle may be secondary or downstream to its impact on the core oncogenic program. In addition, the fusion KD led to an induction of antigen presentation and cell autonomous immune responses, such as TNF and IFN signaling (P<1*10^−30, mixed-effects, FIG. 8A).
The SyS cell lines Aska and SYO1 were cultured using standard protocols in DMEM medium (Gibco) supplemented with 10-20% fetal bovine serum, 1% Glutamax (Gibco), 1% Sodium Pyruvate (Gibco) and 1% Penicillin-Streptomycin (Gibco) and grown in a humidified incubator at 37° C. with 5% CO2. Cells expressing a pLKO.1 vector with a scrambled shRNA hairpin control (5′-[…] CTTAGG-3′) (SEQ ID NO: 5) or a shSSX hairpin targeting SSX of the SS18-SSX fusion (5′-[…]-3′) (SEQ ID NO: 6) were prepared by lentiviral infection. In brief, lentivirus was prepared by transfection of HEK293T cells with gene delivery vector and the packaging vectors pspax2 and pMD2.G, filtration of media followed by ultracentrifugation, and then resuspension of viral pellet in PBS. Aska and SYO1 cells were infected with lentivirus for 48 hours and then underwent 5 days of selection with puromycin (2 μg/mL) prior to collection for single cell RNA-seq analysis.
The fusion program consists of genes that were differentially expressed in the Aska or SYO1 cells with the SS18-SSX shRNA (shSSX) compared to those with control shRNA (shCt) after 3 or 7 days post-infection. Gene that were previously reported (35, 36) to be bound by the SS18-SSX oncoprotein in at least two SyS cell lines were defined as direct SS18-SSX targets, and were used to stratify the SS18-SSX program to direct and indirect targets.

[1] abbreviates: SSX shRNA (shSSX) vs control shRNA (shCt), ASKA and SYO1 cells, scRNA-Seq.

“shSSX: shSSX hairpin targeting SSX of the SS18-SSX fusion (5′-CAGTCACTGACAGTTAATAAA-3′), pLKO.1 lentiviral vector”: under setting [1], the mesenchymal differentiation program result is recorded as “induced”, the “overall expression of the cell cycle program” value is “repressed” and the “overall expression of the core oncogenic program” value is recorded as “repressed”. Further, the “immune responses (topmost differentially expressed pathways)” value (shSSX vs shCt, SyS cells stratified by cycling status) was “inducing multiple immune responses”.
